From PMC8279484 (Journal of Medicinal Chemistry, 2021)

Tests used:
THP-1 LUCIA monocytes = test: Intrinsic cytotoxicity: LDH release without LPS; type: cell-based, human; details: for Intrinsic Toxicity Level: LDH-associated level of cytotoxicity (high / moderate / low); for intrinsic LDH release versus vehicle / spontaneous cell release: absence of LPS, 24 h, controls Dex 1 μM, 2 1 pM, 5 1 pM; for Intrinsic Toxicity TC50 (pM): half-maximal intrinsic LDH-associated toxic activity, no LPS
Outline: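 THP-1-Lucia NF-κB cells exposed 24 h to compounds, vehicle or controls, then LPS-stimulated for extrinsic, unstimulated for intrinsic. Supernatant LDH read at 490 nm minus 690 nm, relative to vehicle; maximum release from 2% Triton-X-100 lysis, spontaneous release from untreated cells; LPS response set to 100%.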

ALX/FPR2 receptor = target: T1, ALX/FPR2 receptor (Homo sapiens, UniProt P25090); test: Intracellular calcium flux in FPR2+/Gαq+ stably transfected HEK-293; type: cell-based; details: for Emax: HEK293, % delta calcium signal relative to peak of full agonist (1), 10 pM–100 nM, read-out: Efficacy Emax (%)
T1 construct: host or cells: HEK-293, stably double-transfected FPR2+/Gαq+
T1 sequence (P25090 1-351): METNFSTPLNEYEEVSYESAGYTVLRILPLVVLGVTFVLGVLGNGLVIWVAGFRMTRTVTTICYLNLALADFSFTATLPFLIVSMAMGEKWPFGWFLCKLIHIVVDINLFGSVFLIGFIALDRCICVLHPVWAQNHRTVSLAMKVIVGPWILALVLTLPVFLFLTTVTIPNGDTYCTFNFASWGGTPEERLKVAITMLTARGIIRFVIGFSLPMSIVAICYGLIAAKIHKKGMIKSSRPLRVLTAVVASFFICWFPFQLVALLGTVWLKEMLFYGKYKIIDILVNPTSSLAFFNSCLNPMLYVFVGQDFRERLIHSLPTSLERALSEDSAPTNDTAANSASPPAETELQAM
Protocol: HEK-293-transfected and wt cell lines were cultured in Dulbecco’s modified Eagle’s medium (DMEM Glutamax, 4 mM L-glu and 4.50 g/L glucose—Gibco, Ireland) supplemented with heat-inactivated (30 min at 56C) 10% (v/v) FBS (Invitrogen, U.K.), 50 U penicillin, and 50 μg of streptomycin (Invitrogen, U.K.). As stably double-transfected FPR2^+/Gαq^+ HEK-293 cells were resistant to Geneticin and Hygromycin, these were used as selective antibiotics (500 and 100 μg/mL, respectively) to maintain the stable double transfection with the ALX/FPR2 receptor and the Gαq subunit coupled to it. Immediately prior to calcium measurement, fluorescently labeled cells were treated with 10^–11/–9/–7M LXA41 or sLXms using an injection system coupled to the fluorescence reader.
To explore the mechanism of action through which the sLXm lead compound exerts the effects seen here, its interaction with the ALX/FPR2 receptor was investigated and agonist-induced intracellular calcium transients were measured using an engineered cell line stably overexpressing the ALX/FPR2 receptor and the Gαq subunit coupled to it (Figure S6). Wild-type HEK cells were used as controls, to verify the specificity of the agonism toward ALX/FPR2, as previously reported.[36] Briefly, prior to cell plating, sterile 96-well plates (black-sided with optically clear glass flat bottoms) were PDL-coated overnight. Subsequently, 2 × 10^5 wild-type cells and overexpressed cells/well were cultured for 18 h in DMEM complete media (containing Ca^2+ and Mg^2+) to facilitate adherence prior to labeling with Fluo-4 dye. After 1 h of incubation at 37 °C with Fluo-4, cells were gently washed twice and placed in 100% Hanks’ balanced salt solution (HBSS; 37 °C) before reading the fluorescence (485/535 nm), using a spectrophotometer conjugated with an injection system (Clariostar BMG LABTECH plate reader), allowing addition to the cells of controls ([…], 2 nM Wp, a synthetic ALX/FPR2 agonist) or experimental treatments [10 pM, 1 nM, and 100 nM LXA41 or (R)-6].
During calcium flux measurement, the kinetic steps involved were the following: the baseline fluorescent signal was measured for 20 s, followed by 100 s immediately after agonist injection. Subsequently, 2% Triton-X-100 was added to lyse the cells (monitoring for 20 s the maximal release of calcium ions in the extracellular environment) and, finally, 25 mM tetraacetic acid (EGTA) was added to chelate calcium ions (monitoring for additional 20 s the minimal detection of calcium ions in the extracellular environment) (Figure S7).
The “coding” of the heat-map indicates the arbitrary criteria to assign points to each single PD component (efficacy = Imax or Emax; potency = IC50 or EC50; slope = HS) to generate a final (aggregate) relative PD score. If a single PD component was greater than the reference level (x > 1), then the single-component relative score was arbitrarily set to +1 (light green) or +2 (dark green). If a single PD component was equal to the reference level (x = 1), then the single-component relative score was arbitrarily set to 0 (gray). If a single PD component was smaller than the reference level (x < 1), then the single-component relative score was arbitrarily set to −1 (light red) or −2 (dark red). If the curve of a single PD component was best fitting to a flat line (x = 0), then the single-component relative score was arbitrarily set to −4 (purple) (Table S1).

C57bl/6 mice = test: Murine carrageenan-induced paw edema; type: in vivo, mouse; parameters: Paw swelling Index: Mean: unit not given here; details: for % relative to carageenan-induced level: Veh = 100; for % relative to carageenan-induced level / % reduction relative to carageenan-induced level: (R)-6, (R)-17 2 μg/kg, Naproxen 50 mg/kg p.o.; for effect on inflammatory response (paw swelling), in words / Paw swelling Index: Mean: (R)-6, (R)-17 2 μg/kg ip, Naproxen 50 mg/kg po; for Paw swelling Index: Mean: n = 3
Protocol: Then, 50 μL of 1% carrageenan was injected with an equivalent volume of saline injected into the contralateral paw. Inflammation was presented as the difference in paw thickness over time using gauge (POCO 2T; Kroeplin, GmbH, Surrey, U.K.). Data are presented as mean ± SEM, n = 3 mice/treatment group.

| Compound | Slope HS (ALX/FPR2 receptor) | type of agonism at ALX/FPR2 (ALX/FPR2 receptor) | (Single component) Rel. Score: Rel. Sl. (ALX/FPR2 receptor; relative to LXA4 (1)) | Efficacy Rel. Eff. (ALX/FPR2 receptor; relative to LXA4 (1)) | Potency Rel. Pot. (ALX/FPR2 receptor; relative to LXA4 (1)) | Rel. Slope (ALX/FPR2 receptor; relative to LXA4 (1)) | Intrinsic Toxicity Level (THP-1 LUCIA monocytes) | intrinsic LDH release versus vehicle / spontaneous cell release (THP-1 LUCIA monocytes) | Intrinsic Toxicity TC50 (pM) (THP-1 LUCIA monocytes) | % relative to carageenan-induced level (C57bl/6 mice; 4h) [%] | % relative to carageenan-induced level (C57bl/6 mice; 8h) [%] | % relative to carageenan-induced level (C57bl/6 mice; 24h) [%] | % relative to carageenan-induced level (C57bl/6 mice; 48h) [%] | % reduction relative to carageenan-induced level (C57bl/6 mice; 72h) [%] | % relative to carageenan-induced level (C57bl/6 mice; 72h) [%] | effect on inflammatory response (paw swelling), in words (C57bl/6 mice) | Paw swelling Index: Mean (C57bl/6 mice; Time 4h, 1% carrageenan) | Paw swelling Index: Mean (C57bl/6 mice; Time 8h) | Paw swelling Index: Mean (C57bl/6 mice; Time 24h) | Paw swelling Index: Mean (C57bl/6 mice; Time 48h) | also measured |
| --- | --- | --- | --- | --- | --- | --- | --- | --- | --- | --- | --- | --- | --- | --- | --- | --- | --- | --- | --- | --- | --- |
| CCCCCCC[C@H](O)c1nc2ccccc2nc1/C=C/[C@@H](O)[C@@H](O)CCCC(=O)OC [(S)-8, Methyl (5S,6R,E)-5,6-Dihydroxy-8-(3-((S)-1-hydroxyoctyl)quinoxalin-2-yl)oct-7-enoate] | – | – | – | – | – | – | Low | lower than the vehicle | 100 | – | – | – | – | – | – | – | – | – | – | – | – |
| CCCCC[C@@H](O)c1nc2ccccc2nc1/C=C/[C@H]1OC(C)(C)O[C@H]1CCCC(=O)OC [(R)-17, Methyl 4-((4S,5R)-5-((E)-2-(3-((R)-1-Hydroxyhexyl)quinoxalin-2-yl)vinyl)-2,2-dimethyl-1,3-dioxolan-4-yl)butanoate] | – | – | – | – | – | – | – | – | 100 | 103 | 84 | 92 | 149 | 120 | 220 | no effect | 0.07 | 0.33 | 0.80 | 0.60 | % reduction relative to carageenan-induced level (C57bl/6 mice; 4h): 3%; % reduction relative to carageenan-induced level (C57bl/6 mice; 24h): -8%; % reduction relative to carageenan-induced level (C57bl/6 mice; 48h): 49%; Paw swelling Index: Mean (C57bl/6 mice; Time 72h): 0.22 |

Now from value to compound, other results behind:

| Slope HS (ALX/FPR2 receptor) | type of agonism at ALX/FPR2 (ALX/FPR2 receptor) | (Single component) Rel. Score: Rel. Sl. (ALX/FPR2 receptor; relative to LXA4 (1)) | Efficacy Rel. Eff. (ALX/FPR2 receptor; relative to LXA4 (1)) | Potency Rel. Pot. (ALX/FPR2 receptor; relative to LXA4 (1)) | Rel. Slope (ALX/FPR2 receptor; relative to LXA4 (1)) | Compound | Intrinsic Toxicity Level (THP-1 LUCIA monocytes) | intrinsic LDH release versus vehicle / spontaneous cell release (THP-1 LUCIA monocytes) | Intrinsic Toxicity TC50 (pM) (THP-1 LUCIA monocytes) | % relative to carageenan-induced level (C57bl/6 mice; 4h) [%] | % relative to carageenan-induced level (C57bl/6 mice; 8h) [%] | % relative to carageenan-induced level (C57bl/6 mice; 24h) [%] | % relative to carageenan-induced level (C57bl/6 mice; 48h) [%] | % reduction relative to carageenan-induced level (C57bl/6 mice; 72h) [%] | % relative to carageenan-induced level (C57bl/6 mice; 72h) [%] | effect on inflammatory response (paw swelling), in words (C57bl/6 mice) | Paw swelling Index: Mean (C57bl/6 mice; Time 4h, 1% carrageenan) | Paw swelling Index: Mean (C57bl/6 mice; Time 8h) | Paw swelling Index: Mean (C57bl/6 mice; Time 24h) | Paw swelling Index: Mean (C57bl/6 mice; Time 48h) | also measured |
| --- | --- | --- | --- | --- | --- | --- | --- | --- | --- | --- | --- | --- | --- | --- | --- | --- | --- | --- | --- | --- | --- |
| 220 | equipotent partial agonist | 1 (1 < x < 10) | 0.61 | 1 | 1.46 | CCCCC[C@@H](O)c1nc2ccccc2nc1/C=C/[C@@H](O)[C@@H](O)CCCC(=O)OC [(R)-6, Methyl (5S,6R,E)-5,6-Dihydroxy-8-(3-((R)-1-hydroxyhexyl)quinoxalin-2-yl)oct-7-enoate] | Low and low cytotoxicity | lower than the vehicle | 500 | 116 | 63 | 72 | 53 | 10 | 110 | significantly reduced | 0.08 | 0.25 | 0.63 | 0.21 | ALX/FPR2 activation lower than that induced by native LXA4 (ALX/FPR2 receptor; both at 10 pM): 40%; (Single component) Rel. Score: Rel. Eff. (ALX/FPR2 receptor; relative to LXA4 (1)): -2; ΔΤR50: reduction of time taken to reduce the inflammatory response to 50% max (C57bl/6 mice; (R)-6 2 μg/kg ip, relative to vehicle-treated animals): 6 h; Paw swelling Index: Mean (C57bl/6 mice; Time 72h): 0.11 |
| 150 | full agonist | – | 1 | 1 | 1 | CCCCC[C@H](O)/C=C/C=C\C=C\C=C\[C@@H](O)[C@@H](O)CCCC(=O)O [Compound 1, LXA4] | – | – | – | – | – | – | – | – | – | – | – | – | – | – | Emax (ALX/FPR2 receptor): 100% |
| 258 | – | 2 (x ≥ 10) | 0.99 | 1 | 1.72 | CCCCC[C@@H](O)c1c(/C=C/[C@@H](O)[C@@H](O)CCCC(=O)OC)nc(C)n1C [Compound 5, imidazolo-LXA4] | – | did not display any significant cytotoxic effect | – | – | – | – | – | – | – | – | – | – | – | – | Emax (ALX/FPR2 receptor): 99 ± 17%; (Aggregate) Rel. PD Score (ALX/FPR2 receptor; relative to LXA4 (1)): 2 |
